Experimental data: patent US20160102052A1, “Use of Cysteamine in Treating Infections caused by Yeasts/Moulds” (priority 2014, published 2016)

System: Candida albicans 73/025
Experiment: Minimum inhibitory concentration test of cysteamine (Lynovex, NM001), CLSI M27-A3
Type: cell-based
Details: vulvovaginal isolate 73/025; RPMI-1640, 35° C., read at 24 h and 48 h
Description: The aim of the experiment was to determine the MIC of Lynovex (NM001) against vulvovaginal isolate Candida albicans 73/025. Plates were prepared which contain a serial doubling dilution of Lynovex (NM001) at 2× final concentration. The cultures were then prepared in 2×RPMI-1640, according to the CLSI M27-A3 protocol, and mixed in equal volumes in the plate resulting in 1×RPMI-1640, the concentration of compound mentioned below, and the CLSI standard inoculum for C. albicans. These were incubated at 35° C. and read at 24 h and 48 h on the BioTek plate reader.
• 1. Culture of Candida albicans grown overnight at 30° C. • 2. Culture removed from incubator. Add 2 ml sterile dH2O to the overnight culture and wash the cells from the surface of the agar. Cells placed in fresh bijou tube. • 3. Serial doubling dilution carried out and measured against same volume of MacFarland Standard • a. 100 μl culture added to well A1 of microtitre plate. • b. 100 μl sterile dH2O added to wells A2-A11. • c. 100 μl culture added to well A2 of microtitre plate and mixed well resulting in a 1 in 2 dilution. • d. 100 μl taken from A2 and added to A3 on plate and mixed well resulting in a 1 in 4 dilution. • e. This is continued to A11 where 100 μl is removed and discarded. • f. […] Plate read at OD530 on BioTek • h. […]
• 1. […] The plate is read in the BioTek at OD530. • 3. […]

## NCCS [NM001, cysteamine]
  growth of Candida albicans: inhibited the growth
